Ten molecules from patent EP2910557A1, “Enantiopure tetrasubstituted pyrrolidines as scaffolds for proteasome inhibitors and medicinal applications thereof” (Ikerchem, S.L., priority 2014, dated 2015) can be followed below.

This assay has as its target T1, Human erythrocyte 20S proteasome (Homo sapiens, UniProt P28074).
T1 construct: Enzyme: Human erythrocyte 20S proteasome; from tissue; host or cells: human erythrocytes
The experiment in a line: In vitro enzymatic assay of proteasome inhibitory activity (Suc-Leu-Leu-Val-Tyr-AMC substrate). In kind it is biochemical. Particulars: for inhibition at 1 µM: Concentration 1000 nM; for IC50: human erythrocyte 20S proteasome, 10 µM Suc-Leu-Leu-Val-Tyr-AMC, 37°C; for inhibition at 0.5 µM: Concentration 500 nM. The procedure: Example 20: In vitro enzymatic assay of proteasome inhibitory activity.
Substrate: Suc-Leu-Leu-Val-Tyr-AMC
Assay buffer: 250 mM HEPES, pH 7.5, 0.5 mM EDTA, 0.03% SDS, 0.05% Igepal CA-630.
Enzyme: Human erythrocyte 20S proteasome
In vitro proteasome inhibitory activity of the compounds of the invention is evaluated by spectrofluorimetric quantitation of AMC. Stock solutions of compounds of the invention are prepared in dimethyl sulphoxide (DMSO). Test compound and/or vehicle is preincubated with […] enzyme (human erythrocyte 20S proteasome) in modified HEPES buffer pH 7.5 and 1% final concentration of DMSO for 15 minutes at 37°C. The reaction is initiated by addition of 10 µM Suc-Leu-Leu-Val-Tyr-AMC for another 30 minutes incubation period at 37°C. Determination of the release of AMC is read spectrophotometrically (excitation, 380 nm; emission, 460 nm). IC50 values are determined by a non-linear, least squares regression analysis using MathlQTM (ID Business Solutions Ltd., UK).

As usually defined, the inhibition is the percentage by which the read-out fell short of the control. A higher inhibition goes with a response far below the control. Broadly, the IC50 is the concentration at which inhibition is half-maximal. Lower therefore signals greater potency. In turn, `CC(C)C[C@H](NC(=O)[C@H]1N[C@@H](c2ccccc2)[C@H]([N+](=O)[O-])[C@H]1c1ccccc1)B(O)O` [Example 2, (R)-3-methyl-1-((2S,3S,4R,5S)-4-nitro-3,5-diphenylpyrrolidine-2-carboxamido)butylboronic acid] had an inhibition at 1 µM of 70% and an IC50 of 430 nM.
In turn, `Cc1ccc([C@H]2[C@H]([N+](=O)[O-])[C@@H](c3ccccc3)N[C@H]2C(=O)N[C@@H](CC(C)C)B(O)O)cc1` [Example 5, (R)-3-methyl-1-((2R,3R,4S,5R)-4-nitro-5-phenyl-3-p-tolylpyrrolidine-2-carboxamido)butylboronic acid] gave an inhibition at 0.5 µM of 77% and a concentration for half-maximal inhibition (IC50) of 78 nM.
For `CC(C)C[C@H](NC(=O)[C@@H]1N[C@H](c2ccccc2)[C@@H]([N+](=O)[O-])[C@@H]1c1ccc([N+](=O)[O-])cc1)B(O)O` [Example 8, (R)-3-methyl-1-((2R,3R,4S,5R)-4-nitro-3-(4-nitrophenyl)-5-phenylpyrrolidine-2-carboxamido)butylboronic acid] the same measures were 69% and 150 nM.
Molecule `CC(C)C[C@H](NC(=O)[C@@H]1N[C@H](c2ccccc2)[C@@H]([N+](=O)[O-])[C@@H]1c1ccc2ccccc2c1)B(O)O` [Example 9, (R)-3-methyl-1-((2R,3R,4S,5R)-3-(naphthalen-2-yl)-4-nitro-5-phenylpyrrolidine-2-carboxamido)butylboronic acid] registered an inhibition at 0.5 µM of 69% and an IC50 of 150 nM.
In turn, `CC(C)C[C@H](NC(=O)[C@@H]1N[C@H](c2cccc3ccccc23)[C@@H]([N+](=O)[O-])[C@@H]1c1ccccc1)B(O)O` [Example 13, (R)-3-methyl-1-((2R,3R,4S,5R)-5-(naphthalen-1-yl)-4-nitro-3-phenylpyrrolidine-2-carboxamido)butylboronic acid] displayed a concentration for half-maximal inhibition (IC50) of 39 nM. The same molecule displayed an inhibition at 0.05 µM (Concentration 50 nM) of 54%.
`CC(C)C[C@H](NC(=O)[C@@H]1N[C@H](c2cccnc2)[C@@H]([N+](=O)[O-])[C@@H]1c1ccccc1)B(O)O` [Example 15, (R)-3-methyl-1-((2R,3R,4S,5R)-4-nitro-3-phenyl-5-(pyridin-3-yl)pyrrolidine-2-carboxamido)butylboronic acid] came in with an inhibition at 0.5 µM of 72% and a 50% inhibitory concentration (IC50) of 100 nM.
In the case of `CC(C)C[C@H](NC(=O)[C@@H]1N[C@H](c2cccc3ccccc23)[C@H]([N+](=O)[O-])[C@H]1c1ccccc1)B(O)O` [Example 16, (R)-3-methyl-1-((2R,3S,4R,5R)-5-(naphthalen-1-yl)-4-nitro-3-phenylpyrrolidine-2-carboxamido)butylboronic acid], 0.5 µM produced 33% inhibition.
Regarding `COC(=O)[C@H]1[C@H](C(=O)OC)[C@H](c2ccccc2)N[C@@H]1C(=O)N[C@@H](CC(C)C)B(O)O` [Example 17, (R)-1-((2S,3S,4S,5R)-3,4-bis(methoxycarbonyl)-5-phenylpyrrolidine-2-carboxamido)-3-methylbutylboronic acid], at 0.5 µM the inhibition was 20%.
For the molecule `CC(C)C[C@H](NC(=O)[C@H]1N[C@@H](c2ccccc2)[C@H]2C(=O)N(C)C(=O)[C@H]21)B(O)O` [Example 18, (R)-3-methyl-1-((1S,3R,3aS,6aR)-5-methyl-4,6-dioxo-3-phenyloctahydropyrrolo[3,4-c]pyrrole-1-carboxamido)butylboronic acid], the inhibition at 1 µM is 53% and 920 nM corresponded to half-maximal inhibition (IC50).
Take `CC(C)C[C@H](NC(=O)[C@@H]1N[C@H](c2ccccc2)[C@@H]2C(=O)N(C)C(=O)[C@@H]21)B(O)O` [Example 19, (R)-3-methyl-1-((1R,3S,3aR,6aS)-5-methyl-4,6-dioxo-3-phenyloctahydropyrrolo[3,4-c]pyrrole-1-carboxamido)butylboronic acid]: 46 nM corresponded to half-maximal inhibition (IC50). The molecule further displayed an inhibition at 0.1 µM (Concentration 100 nM) of 68%.
